Source: US20050048132A1, “Use of hydrochloric acid in the preparation of a medicament for the treatment of tumour” (priority 2001, published 2005)
Read-outs that look alike come from different tables or passages of the source.

How the values were obtained:
pig liver in vitro = tested on: pig liver in vitro
Method: Thirty pig livers purchased from the market were divided into 10 groups, 3 in each group. […] One milliliter (1 ml) of hydrochloric acid solutions, (the concentrations being 1.8 wt %, 3.6 wt %, 7.2 wt %, 10.8 wt %, 14.4 wt %, 18 wt %, 25.2 wt %), and 1 ml , 0.5 ml, 0.1 ml respectively, of analytical pure hydrochloric acid were injected slowly to the […] of different groups, at a speed of 0.3 ml/min. The gross specimens were observed and the average value of the diameters of coagulated areas was determined.

[1] = tested on: cancerous pain due to advanced cancers; conditions: 3.6 wt % HCl to block and damage the nerves
[2] = tested on: abdominal hypodermal tissue of mice
Method: Thirty mice were used in the experiment. 0.05 ml of 3.8 wt % HCl was injected into the abdominal hypodermal tissue of each of them. […] Injection of 0.05 ml of normal saline was given to each of the remaining 6 mice which served as the control group. Normal saline was injected into the corresponding site where HCl had been injected to the other experimental mice.

S-180 sarcomas = conditions: forty-eight hours after injection; for Diameters of coagulating necrotic area / Gross shapes: 0.05 ml each into tumor 1 cm in size
From the text: S-180 sarcomas were implanted into the hypodermal tissues of mice of Kun Ming species. When the tumor grew into 1 cm in size, a puncture needle was punctured into the center of the tumor and then connected with an automatic micro-injecting pump.

lungs of hogs = tested on: lungs of hogs
From the text: The lung of the animal was dissected 1 week after the injection.

liver of hogs in vivo = conditions: 1.0 ml each into hog liver; 1 week after injection
From the text: Experiment in vivo: Nine hogs (females and males) with average body weight of 70 kg were fed in an enclosed area. The hogs were divided into 3 groups, 3 hogs in each group. The hair on the location of liver was shaved and the skin was sterilized. […] The animals were dissected 1 week after the injection.

kidney cancer = conditions: 1.5 ml of 18 wt % HCl, 3 months after treatment
Method: Treatment of kidney cancer: guided by CT, the puncture needle hit the center of the tumor, 1.5 ml of 18 wt % HCl was injected into the tumor slowly.

[3] = tested on: metastatic tumor of the left lobe of the brain from pulmonary adenocarcinoma; conditions: 1.0 ml of 18 wt % HCl, two times; tumor 1.9 cm×1.9 cm before; 3 months after treatment
cancer cells = experiment: Cultivation of cancer cells in vitro together with gastric juice; format: cell-based
[4] = tested on: recurrent carcinoma of breast; conditions: 1.0 ml of 18 wt % HCl, treated three times; tumor 2.0 cm×1.5 cm
pig liver in vivo = conditions: for diameters of coagulated areas / pathological changes: 1 ml of 3.6% hydrochloric acid
From the text: Ten hogs (females and males), with body weights of 70 kg on average, were fed in an enclosed area. The hair on the location of the liver of each hog was shaved and the skin sterilized guided by B-type ultrasonography. The puncture needle was punctured through the skin to the liver and then the needle was connected with an automatic micro-injecting pump. […] The animal was dissected at 1 week, 4 weeks, 12 weeks and 24 weeks after injection, and the shapes of the coagulating necrotic areas were observed and the diameters of the areas were measured. […] Then the liver tissue including normal tissue and coagulating necrotic tissue was fixed with formalin. Paraffin sections were prepared and the histopathological changes were observed under a microscope. […] Under a microscope, the structure of coagulating necrotic liver tissue was divided into two layers: the necrotic area in the center, and the surrounding reacting area.

skin of guinea pig = conditions: 0.2 ml of 3.6 wt % HCl hypodermal
Method: Six guinea pigs, female and males, 500 g each in body weight, were fed in the routine way. The guinea pig was anesthetized by ether. 0.2 ml of 3.6 wt % HCl was injected into the hypodermal tissue of the guinea pig.

[5] = tested on: metastatic tumor of the adrenal gland from pulmonary carcinoma; conditions: 1.0 ml of 18 wt % HCl, treated three times
[6] = tested on: primary bronchopulmonary carcinoma
Method: Two cases of primary bronchopulmonary carcinoma which were pathologically confirmed were chosen. One was a case of adenocarcinoma, the other was a case of adenous prickle cell carcinoma. The sizes of the two tumors were 2.0×2.0 cm and 2.5×2.0 cm respectively. After CT location, guided by CT, percutaneous puncture was carried out on each case; the needle reached the center of the tumor and connected with an automatic micro-injecting pump, 1.5, 2.0 ml of 18 wt % HCl were injected into the tumors at a speed of 0.2 ml/min.

pig livers in vitro = conditions: 0.5 ml each; after 24 hours
From the text: Twelve pig livers purchased from the market were divided into 4 groups, 3 in each group. A puncture needle was punctured to the center of the liver tissue and then connected with an automatic microinjecting pump.

[7] = 1.5 ml-2.0 ml of 18 wt % HCl with i.v. 5 wt % sodium bicarbonate, 4 patients
[8] = 1.5 ml-2.0 ml of 18 wt % HCl, one week after injection

Method for W256 sarcoma: Rats, female and males, 500 g each in body weight, were fed routinely. Hypodermic implantation of W256 sarcoma was carried out. Sarcoma, 5 cm in diameter, was chosen. One (1.0) ml of 18 wt % HCl was slowly injected into the tumor. Twenty-four hours after injection, the rats were dissected, and the tumors were observed.

Cl [hydrochloric acid]
Diameter of coagulated areas (pig liver in vitro; 0.1 ml of analytic pure hydrochloric acid (36%), 24 hours after injection): 1.5 cm | Diameter of coagulated areas (pig liver in vitro; 0.1 ml of analytic pure hydrochloric acid (36%), immediately after injection): 0.2 cm | Diameter of coagulated areas (pig liver in vitro; 0.5 ml of analytic pure hydrochloric acid (36%), 24 hours after injection): 3.9 cm | Diameter of coagulated areas (pig liver in vitro; 0.5 ml of analytic pure hydrochloric acid (36%), immediately after injection): 1.5 cm | Diameter of coagulated area (pig liver in vitro; 1 ml of 1.8 % hydrochloric acid, 24 hours after injection): 0.75 cm | Diameter of coagulated area (pig liver in vitro; 1 ml of 1.8 % hydrochloric acid, immediately after injection): 0.7 cm | Diameter of coagulated area (pig liver in vitro; 1 ml of 3.6 % hydrochloric acid, 24 hours after injection): 1.4 cm | Diameter of coagulated area (pig liver in vitro; 1 ml of 3.6 % hydrochloric acid, immediately after injection): 1.0 cm | Diameter of coagulated area (pig liver in vitro; 1 ml of 7.2 % hydrochloric acid, 24 hours after injection): 1.9 cm | Diameter of coagulated area (pig liver in vitro; 1 ml of 7.2 % hydrochloric acid, immediately after injection): 1.3 cm | Diameter of coagulated area (pig liver in vitro; 1 ml of 10.8 % hydrochloric acid, 24 hours after injection): 2.2 cm | Diameter of coagulated area (pig liver in vitro; 1 ml of 10.8 % hydrochloric acid, immediately after injection): 1.5 cm | Diameter of coagulated area (pig liver in vitro; 1 ml of 14.4 % hydrochloric acid, 24 hours after injection): 3.1 cm | Diameter of coagulated area (pig liver in vitro; 1 ml of 14.4 % hydrochloric acid, immediately after injection): 1.8 cm | Diameter of coagulated area (pig liver in vitro; 1 ml of 18 % hydrochloric acid, 24 hours after injection): 4.8 cm | Diameter of coagulated area (pig liver in vitro; 1 ml of 18 % hydrochloric acid, immediately after injection): 2.2 cm | Diameter of coagulated area (pig liver in vitro; 1 ml of 25.2 % hydrochloric acid, 24 hours after injection): 5.2 cm | Diameter of coagulated area (pig liver in vitro; 1 ml of 25.2 % hydrochloric acid, immediately after injection): 2.4 cm | Diameter of coagulated areas (pig liver in vitro; 1.0 ml of analytic pure hydrochloric acid (36%), 24 hours after injection): 5.5 cm | Diameter of coagulated areas (pig liver in vitro; 1.0 ml of analytic pure hydrochloric acid (36%), immediately after injection): 2.8 cm | relief of cancerous pain [1]: pain could be relieved | damage in the abdominal organs by dissection ([2]; 0.05 ml of 3.8 wt % HCl abdominal hypodermal): No damage was found in the abdominal organs | diameters of damages (ulcer-like damages of the skin) ([2]; 0.05 ml of 3.8 wt % HCl then 0.05 ml normal saline (control group)): 1.2 cm | diameters of scar areas ([2]; 0.05 ml of 3.8 wt % HCl then normal saline (control group), one week later): 0.9 cm | Diameters of coagulating necrotic area (S-180 sarcomas): 0.76 cm | Gross shapes (S-180 sarcomas): spherical, caseous, grayish white in color, | necrosis of the tumor (S-180 sarcomas; 0.05 ml): complete necrosis of the tumor | coagulating necrotic ranges of the liver (hogs; 18 wt % HCl, 0.5, 1, 3 ml at 0.1, 0.5, 1 ml/min into hog liver, one week after injection): 1.2-5.2 cm | death or intoxication (hogs; 18 wt % HCl, 0.5 ml-3 ml into hog liver): No death or intoxication of hog occurred | reaction of animal at injection (lungs of hogs; 1.0 ml of 3.6 wt % HCl into the lung at 0.3 ml/min): coughed slightly | diameter of coagulated (consolidated) lung tissue (lungs of hogs; 1.0 ml of 3.6 wt % HCl, 1 week after injection): 1.8 cm | coagulating necrotic area on dissection of the lung (lungs of hogs; 1.0 ml of 3.6 wt % HCl, four weeks after injection): the coagulating necrotic area became smaller | fate of necrotic substances (lungs of hogs; 1.0 ml of 3.6 wt % HCl, three months after injection): the necrotic substances were absorbed | pH value of blood, blood routine tests, liver and kidney function tests (primary liver cancer; [7]): all normal | painful or toxic manifestation (primary liver cancer; [7]): None of the 4 patients had painful or toxic manifestation | color ultrasonography of the tumor (primary liver cancer; [8]): high level echo without blood flow area | liver cancer sensitive index α-fetoglobulin value (primary liver cancer; [8]): markedly lowered | diameter of coagulating necrotic area (liver of hogs in vivo): 2.1 cm | gross examination of coagulating necrotic area (liver of hogs in vivo): spheroid | appearance of tumor on re-examination (kidney cancer): high level echo locus without blood flow | diameter of tumor on re-examination (kidney cancer; tumor 3.0 cm×2.5 cm before): 0.5 cm | diameter of brown necrotic tumor tissue (W256 sarcoma; 1.0 ml of 18 wt % HCl into sarcoma 5 cm in diameter, 24 hours after injection): 3.5 cm | death or intoxication during the treatment (W256 sarcoma; 1.0 ml of 18 wt % HCl intratumoral): no death or intoxication occurred among the rats | histopathologic changes by microscopy (W256 sarcoma; 1.0 ml of 18 wt % HCl, 24 hours after injection): complete necrosis occurred in the necrotic area | size of metastatic tumor by intensified CT [3]: 0.8 cm | effect on cancer cells in culture (cancer cells): the destruction was due to gastric acid | tumor response [4]: basically turned into necrotic tissue | diameters of coagulated areas (pig liver in vivo; 1 week after injection): 1.8 cm | pathological changes (pig liver in vivo; 1 week after injection): necrotic area occupies most part of the area, | diameters of coagulated areas (pig liver in vivo; 4 weeks after injection): 1.3 cm | pathological changes (pig liver in vivo; 4 weeks after injection): The necrotic area became smaller, infiltration | diameters of coagulated areas (pig liver in vivo; 12 weeks after injection): 0.5 cm | pathological changes (pig liver in vivo; 12 weeks after injection): The necrotic area became further smaller, the | animal death during the experiment (pig liver in vivo; 1 ml of 3.6 wt % hydrochloric acid into hog liver): no animal died due to the treatment | diameter of round high level echo region at coagulated site by B-type ultrasonography (pig liver in vivo; 1 ml of 3.6 wt % hydrochloric acid, immediately after injection): 2.0 cm | fate of necrotic substances (pig liver in vivo; 1 ml of 3.6 wt % hydrochloric acid, sixteen weeks after injection): the necrotic substances were absorbed | skin change after injection (skin of guinea pig): the skin became rough and a little exudation occurred | skin change three weeks later (skin of guinea pig; iodine tincture smeared, three weeks later): the surface became dry and scar was formed | diameter of surface of ulcer (skin of guinea pig; one week after injection): 1.0 cm | tumor response [5]: necrosis of the tumor occurred | cytological examination of needle puncture biopsy ([6]; 1.5, 2.0 ml of 18 wt % HCl): found necrotic tissue | reactions during the treatment ([6]; 1.5, 2.0 ml of 18 wt % HCl with i.v. 5% sodium bicarbonate, two patients): coughed slightly during the treatment; no other painful or toxic manifestations occurred | pH value of blood, blood routine tests, liver and kidney function tests ([6]; 1.5, 2.0 ml of 18 wt % HCl, two patients): all normal | diameter of coagulating necrotic area (pig livers in vitro): 2.2 cm | gross shape (pig livers in vitro): spherical, grayish white in color, the

CCO [100% absolute alcohol, absolute alcohol]
Diameters of coagulating necrotic area (S-180 sarcomas): 0.41 cm | Gross shapes (S-180 sarcomas): spherical, white in color, the border | diameter of coagulating necrotic area (liver of hogs in vivo): 0.5 cm | gross examination of coagulating necrotic area (liver of hogs in vivo): spherical, white in color | diameter of coagulating necrotic area (pig livers in vitro): 0.5 cm | gross shape (pig livers in vitro): spherical, white, the border

CC(=O)O [50% acetic acid, acetic acid]
Diameters of coagulating necrotic area (S-180 sarcomas): 0.62 cm | Gross shapes (S-180 sarcomas): brown, the border was unclear, | diameter of coagulating necrotic area (liver of hogs in vivo): about 1.8 cm | gross examination of coagulating necrotic area (liver of hogs in vivo): did not have a definite border | diameter of coagulating necrotic area (pig livers in vitro): 2.0 cm | gross shape (pig livers in vitro): lump-like, white, the border
